{"source": "patent US4859229A", "about": "“3-Aryluracils having an ether (thio) carbomyloxy or sulphomyloxy substituent on the aromatic moiety” (Hoffmann-La Roche Inc., priority 1986, dated 1989)", "test_system": "weeds, including weed grasses", "experiment": "herbicidal activity (general statement, no test described)", "type": "in vivo", "settings": "in words; no rate or test printed", "data": [{"smiles": "Cn1c(C(F)(F)F)cc(=O)n(-c2cc(O)c(Cl)cc2F)c1=O", "note": "[3-(4-chloro-2-fluoro-5-hydroxyphenyl)-1-methyl-6-trifluoromethyl-2,4(1H,3H)-pyrimidinedione]", "values": [{"measurement": "herbicidal activity", "value": "especially pronounced herbicidal activity"}]}]}
